Assay results: patent publication US20130137131A1, “System and Method of Producing Volatile Organic Compounds from Fungi” (priority 2010, published 2013)

Tested on: Hypoxylon sp. CI-4
Assay: Response of Hypoxylon sp. CI-4 to epigenetic modifying agents
Assay type: cell-based
Settings: lower concentrations seemingly ineffective
Excerpt: The wild-type Hypoxylon sp. had previously been found as an endophyte in Persea indica growing in the Laurisilva, Tenerife, Spain (Tomsheck et al., 2010, Microb Ecol 60:903-914). The fungus, growing on potato dextrose agar (PDA), was hyphal tipped in order to obtain a genetically pure strain, CI-4. This strain was used for epigenetic modulation using a histone deacetylase inhibitor, suberoylanilide hydroxamic acid (SAHA) and a DNA methyltransferase inhibitor, 5-azacytidine (AZA) as the modulating compounds (Cichewicz, 2010, Nat Prod Rep 27:11-22). Stock solutions of these compounds were prepared in DMSO and sterile deionized water, respectively. The fungus was grown on PDA supplemented with different concentrations of the epigenetic modulators (1, 5, 10, 20, 30, 50 and 100 μM) for 15 days. The numerous variants resulting from concentrations of modulators producing the most notable cultural, biological and VOC changes were selected for future study. The strains studied here were CI-4 (wild-type), CI4-B (strain selected after a 15 day exposure of CI-4 to 50 μM SAHA, hyphal tipped, transferred to PDA and studied without subsequent exposure to SAHA), CI4-SAHA (strain CI-4 exposed to 50 μM SAHA in all studies), and CI4-AZA (strain CI-4 exposed to 100 μM AZA in all studies).
Successful attempts were made to acquire a response of Hypoxylon sp. […]

| Structure (SMILES) | Changes in the morphology and bioactivities of the cultures (growth of strain CI-4 on PD broth with 100 μM AZA) | Changes in the morphology and bioactivities of the cultures (growth of strain CI-4 on PD broth with 50 μM SAHA) |
| --- | --- | --- |
| Nc1ncn([C@@H]2O[C@H](CO)[C@@H](O)[C@H]2O)c(=O)n1 [AZA, 4-amino-1-(β-D-ribofuranosyl)-1,3,5-triazin-2(1H)-one] | the most striking changes in the morphology and bioactivities of the cultures | – |
| O=C(CCCCCCC(=O)Nc1ccccc1)NO [SAHA, N-hydroxy-N′-phenyl-octanediamide] | – | the most striking changes in the morphology and bioactivities of the cultures |
